EC50, half-life and CLint scaled data for ten compounds are collected here from patent publication US12410163B2, “Compounds as GLP-IR agonists” (Terns Pharmaceuticals, Inc., priority 2022, dated 2025).

One series deals with T1, human GLP-1R receptor (Homo sapiens, UniProt P43220).
T1 construct: expressed in transfected cells
Kind of series: GLP-1R low expression cell assay (cAMP TR-FRET, CHO-K1_hGLP-1Rlow_clone10). Format: cell-based. To be noted: CHO-K1_hGLP-1Rlow_clone10 cells, percent activation relative to control GLP-1 peptide. The method, then:
Stable cell lines expressing high and low GLP-1R surface expression are generated in CHO-K1 cells transfected (Fugene 6) with a puromycin selectable DNA plasmid encoding human GLP-1R receptor (accession number: NM_002062.5) under control of an EF1A promoter. Transfected cells are seeded into 24-well plates (9,000 cells/well) containing complete medium and incubated in a humidified incubator at 37° C. with 5% carbon dioxide. After overnight incubation, medium is replaced with complete medium supplemented with puromycin (6 μg/mL) and refreshed every 2-3 days to select for stably transfected cells. Individual pools of selected cells are expanded prior to analysis for responsiveness to GLP-1 control peptide using a TR-FRET assay to detect cAMP (LANCE Ultra cAMP Assay, Perkin Elmer). Briefly, cells are collected in Versene solution, plated in 384-well plates (1,000 cells/well) and combined with serially diluted GLP-1R control peptide (10 nL) using an acoustic dispenser (ECHO). Plates are incubated for 30 minutes at 25° C. prior to the addition of EU-cAMP tracer (5 μL) and Ulight-anti-cAMP (5 μL) reagents to each well, followed by 15 minutes incubation at 25° C. TR-FRET signal is detected using an EnVision Multimode Plate Reader (excitation=320 nm; emission=615 and 655 nm). Dose-response curves are used to generate EC50 values as a measure of responsiveness to the GLP-1R control peptide. Selected cell lines are monitored for responsiveness over multiple passages to ensure stability. […] Briefly, GLP-1R expression is analyzed by flow cytometry using a fluorescein-labeled Exendin-4 peptide fluorescent probe (FLEX). Cells are harvested in Versene solution and washed 3-times with PBS+0.5% BSA before incubation with FLEX reagent (10 μM) for 2 hours at room temperature. After incubation, cells are washed 3-times in PBS+0.5% BSA before final resuspension in PBS prior to analysis by flow cytometry to measure FLEX mean fluorescence intensity (MFI) as a measure of GLP-1R expression on the cell surface.
For compound testing in the CHO-K1_hGLP-1Rlow_clone10 cell lines, cells are seeded in 384-well plates (1,000 cells/well). Test compounds are serially diluted in DMSO (10-point, 3-fold dilution), added to wells using an ECHO dispenser (10 nL/well) and plates are centrifuged for 1 min and agitated for 2 min at room temperature prior to 30-minute incubation at 25° C. After incubation, Eu-cAMP (5 μL) and Ulight-anti-cAMP (5 μL) reagents are added to each well, followed by centrifugation for 1 minute, agitation for 2 minutes at room temperature, and final incubation of the plates at 25° C. for 15 minutes. Plates are read using an EnVision microplate reader (excitation=320 nm; emission=615 and 655 nm). Dose-response curves are generated from duplicate wells based on percent activation calculated relative to a control GLP-1 peptide agonist that was run in parallel. EC50 values are determined by fitting percent activation as a function of compound concentration using the Hill equation (XLfit).
Stable cell lines expressing high and low GLP-1R surface expression were generated in CHO-K1 cells transfected (Fugene 6) with a puromycin selectable DNA plasmid encoding human GLP-1R receptor (accession number: NM_002062.5) under control of an EF1A promoter. Transfected cells were seeded into 24-well plates (9,000 cells/well) containing complete medium and incubated in a humidified incubator at 37° C. with 5% carbon dioxide. After overnight incubation, medium was replaced with complete medium supplemented with puromycin (6 μg/mL) and refreshed every 2-3 days to select for stably transfected cells. Individual pools of selected cells were expanded prior to analysis for responsiveness to GLP-1 control peptide using a TR-FRET assay to detect cAMP (LANCE Ultra cAMP Assay, Perkin Elmer).

A short description of series [1]: Metabolic stability in hepatocytes. The class given is in vitro ADME. The following applies: cryopreserved human hepatocytes (suspension), 1×10^6 cells/mL. The method, then:
Test compounds are incubated in human hepatocytes and stability is assessed from the substrate […] approach. Test compounds are dissolved in dimethyl sulfoxide (DMSO) to create a 10 mM Stock, and then further diluted to create a 1000× Working Stock of 1 mM with DMSO in 96-well plates for test compounds and the positive control (midazolam). Vials containing cryopreserved hepatocytes are removed from the liquid nitrogen tank and immediately immersed in a 37° C. water bath. The vials are shaken gently until the contents had thawed and were then immediately emptied into 48 mL of pre-warmed HT Medium in a 50 mL conical tube. Cells remaining in the vial are resuspended with 1.0 mL of pre-warmed HT Medium and added to the conical tube. The tube is capped and then gently inverted several times to resuspend the hepatocytes. The cell suspension is centrifuged at 50×g at room temperature for 5 minutes and the supernatant discarded. The cell pellet is loosened by gently swirling the centrifuge tube and is re-suspended in 4 mL of warm Dulbecco's Modified Eagle medium (DMEM). Cell density is determined by a cell counter by Nexcelom, and DMEM medium is added to obtain a target density of 1×10^6 cells/mL. The assay is carried out in 96-well microtiter plates. Test Compounds are incubated at 1 μM with 1×10^6 cells/mL hepatocytes in DMEM for 0, 30, 60, 120 and 240 minutes. The incubation is carried out with gentle shaking at 37° C. under a humid atmosphere of 95% air/5% CO2. The volume of the incubation mixture is 37 μL with a final 0.1% DMSO. At each of the time points, the incubation is stopped by adding 150 μL quenching solution (100% acetonitrile, 0.1% formic acid containing bucetin as an internal standard for positive ESI mode). Subsequently, the mixtures are vortexed for 20 min and centrifuged at 4,000 RPM at 10° C. The supernatant (80 μL) is transferred to a clean 96-well plate and analyzed by LC-MS/MS. Midazolam at 1 μM with a final 0.1% DMSO is included as a positive control to verify assay performance. The percent parent remaining, intrinsic and predicted hepatic clearance and t1/2 are calculated. All samples are analyzed by LC-MS/MS using an AB Sciex API 4000 instrument, coupled to a Shimadzu LC-20AD LC Pump system. Separation is achieved using a Waters Atlantis T3 dC18 reverse phase HPLC column (20 mm×2.1 mm) at a flow rate of 0.5 mL/min. The mobile phase consisted of 0.1% formic acid in water (solvent A) and 0.1% formic acid in 100% acetonitrile (solvent B). Elution conditions are detailed below.
The ion optics of each test compound are optimized for their declustering potential (DP), […] (CE), collision-cell exit potential (CXP) and used in a selected ion monitoring experiment in the positive ion mode. The peak area ratio of each test compound to internal standard is then evaluated for stability. The extent of metabolism is calculated based on the disappearance of the test compound, compared to its initial concentration. The initial rates of clearance of the test compound are calculated using the linear regression plot of semi-log % remaining of the compound versus time. The elimination rate constant (k) of the linear regression plot is then used to determine t1/2 and the intrinsic clearance (CLint) using the following formula, where Chepatocyte (million cells/mL) is the cell density of the incubation: k=−slope t1/2=0.693/k CLint=k/Chepatocyte
Test compounds were incubated in human hepatocytes and stability was assessed from the substrate […] approach. Test compounds were dissolved in dimethyl sulfoxide (DMSO) to create a 10 mM Stock, and then further diluted to create a 1000× Working Stock of 1 mM with DMSO in 96-well plates for test compounds and the positive control (midazolam). Vials containing cryopreserved hepatocytes were removed from the liquid nitrogen tank and immediately immersed in a 37° C. water bath. […]

Structures are written as SMILES.

T1 sequence (P43220 24-463): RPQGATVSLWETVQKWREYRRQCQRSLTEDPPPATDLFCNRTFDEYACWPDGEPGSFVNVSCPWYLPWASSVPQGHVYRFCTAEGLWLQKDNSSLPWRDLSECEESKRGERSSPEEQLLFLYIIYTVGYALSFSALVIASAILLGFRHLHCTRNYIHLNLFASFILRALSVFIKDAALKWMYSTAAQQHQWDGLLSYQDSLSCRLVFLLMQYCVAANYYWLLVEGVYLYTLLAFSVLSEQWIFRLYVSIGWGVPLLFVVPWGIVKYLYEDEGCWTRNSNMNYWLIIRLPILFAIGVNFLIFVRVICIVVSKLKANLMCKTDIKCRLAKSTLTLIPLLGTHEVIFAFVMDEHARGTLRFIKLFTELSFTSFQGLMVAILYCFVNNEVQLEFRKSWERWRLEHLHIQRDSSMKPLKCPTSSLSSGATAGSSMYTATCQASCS

At human GLP-1R receptor, `CC1(c2ccc(C#N)cc2F)Oc2cccc(N3CCN(Cc4nc5ccc(-c6nnc(C(F)(F)F)[nH]6)cc5n4Cc4cncs4)C4CC43)c2O1` (centres unmarked) [Compound 13, 3-Fluoro-4-(2-methyl-4-(5-((1-(thiazol-5-ylmethyl)-6-(5-(trifluoromethyl)-4H-1,2,4-triazol-3-yl)-1H-benzo[d]imidazol-2-yl)methyl)-2,5-diazabicyclo[4.1.0]heptan-2-yl)benzo[d][1,3]dioxol-2-yl)benzonitrile] came in with an EC50 above 100 nM.

In the case of `N#Cc1ccc(COc2cccc(C3CCN(Cc4nc5ccc(C(=O)O)cc5n4C[C@@H]4CCO4)CC3)n2)c(F)c1` [Reference Compound B, reference compound], in series [1] (0-240 min, read-out: hHep t1/2), the half-life at 1 μM turned out to be 2.6 h. Also, in series [1] (intrinsic clearance, read-out: hHep CLint), the CLint scaled at 1 μM is 15.5 mL/min/kg.

With `CCn1nncc1Cn1c(CN2CCN(c3cccc(OCc4ccc(C#N)cc4F)n3)[C@@H]3C[C@@H]32)nc2ccc(C(=O)O)cc21` [Compound 44, 2-((5-(6-((4-Cyano-2-fluorobenzyl)oxy)pyridin-2-yl)-2,5-diazabicyclo[4.1.0]heptan-2-yl)methyl)-1-((1-ethyl-1H-1,2,3-triazol-5-yl)methyl)-1H-benzo[d]imidazole-6-carboxylic Acid], the EC50 on human GLP-1R receptor was above 100 nM.

Regarding `N#Cc1ccc(COc2cccc(N3CCN(Cc4nc5ccc(-c6nnc(C(F)(F)F)[nH]6)cc5n4Cc4cncs4)[C@@H]4C[C@@H]43)n2)c(F)c1` (racemic) [Compound 12, 3-Fluoro-4-(((6-(5-((1-(thiazol-5-ylmethyl)-6-(5-(trifluoromethyl)-4H-1,2,4-triazol-3-yl)-1H-benzo[d]imidazol-2-yl)methyl)-2,5-diazabicyclo[4.1.0]heptan-2-yl)pyridin-2-yl)oxy)methyl)benzonitrile], the EC50 on human GLP-1R receptor is above 100 nM.

At human GLP-1R receptor, `CC1(c2ccc(C#N)cc2F)Oc2cccc(N3CCN(Cc4nc5ccc(C(=O)O)cc5n4C[C@@H]4CCO4)C4CC43)c2O1` (stereo partly drawn) [Compound 41, 2-((5-(2-(4-cyano-2-fluorophenyl)-2-methylbenzo[d][1,3]dioxol-4-yl)-2,5-diazabicyclo[4.1.0]heptan-2-yl)methyl)-1-(((S)-oxetan-2-yl)methyl)-1H-benzo[d]imidazole-6-carboxylic Acid] yielded an EC50 below 5 nM.

For `N#Cc1ccc(COc2cccc(N3CCC(Cc4nc5ccc(C(=O)O)cc5n4Cc4cncs4)C4CC43)n2)c(F)c1` (centres unmarked) [Compound 46, 2-((2-(6-((4-Cyano-2-fluorobenzyl)oxy)pyridin-2-yl)-2-azabicyclo[4.1.0]heptan-5-yl)methyl)-1-(thiazol-5-ylmethyl)-1H-benzo[d]imidazole-6-carboxylic Acid], the EC50 on human GLP-1R receptor was 50 to 100 nM.

In the case of `N#Cc1ccc(COc2cccc(C3CCN(Cc4nc5ccc(C(=O)O)cc5n4Cc4cncs4)C4CC34)n2)c(F)c1` (centres unmarked) [Compound 16, 2-((5-(6-((4-Cyano-2-fluorobenzyl)oxy)pyridin-2-yl)-2-azabicyclo[4.1.0]heptan-2-yl)methyl)-1-(thiazol-5-ylmethyl)-1H-benzo[d]imidazole-6-carboxylic Acid], the EC50 on human GLP-1R receptor is 5 to 50 nM.

Compound `CO[C@H](C)Cn1c(CN2CCC(c3cccc(OCc4ccc(C#N)cc4F)n3)C3CC32)nc2ccc(C(=O)O)cc21` (stereo partly drawn) [Compound 21, 2-((5-(6-((4-Cyano-2-fluorobenzyl)oxy)pyridin-2-yl)-2-azabicyclo[4.1.0]heptan-2-yl)methyl)-1-((R)-2-methoxypropyl)-1H-benzo[d]imidazole-6-carboxylic Acid] registered an EC50 at human GLP-1R receptor of 5 to 50 nM.

The compound `CO[C@H](C)Cn1c(CN2CCN(c3cccc4c3OC(C)(c3ccc(C#N)cc3F)O4)C3CC32)nc2ccc(C(=O)O)cc21` (stereo partly drawn) [Compound 39, 2-((5-(2-(4-Cyano-2-fluorophenyl)-2-methylbenzo[d][1,3]dioxol-4-yl)-2,5-diazabicyclo[4.1.0]heptan-2-yl)methyl)-1-((R)-2-methoxypropyl)-1H-benzo[d]imidazole-6-carboxylic Acid] had an EC50 on human GLP-1R receptor of 50 to 100 nM.

For `C[C@@]1(c2ccc(C#N)cc2F)Oc2cccc(N3CCN(Cc4nc5ccc(C(=O)O)cc5n4Cc4cncs4)[C@H]4C[C@H]43)c2O1` [Compound 35, 2-((5-(2-(4-Cyano-2-fluorophenyl)-2-methylbenzo[d][1,3]dioxol-4-yl)-2,5-diazabicyclo[4.1.0]heptan-2-yl)methyl)-1-(thiazol-5-ylmethyl)-1H-benzo[d]imidazole-6-carboxylic Acid], at human GLP-1R receptor, the EC50 is above 100 nM.
